Where two headings read alike, the source gives them in different places.
Legend:
[1] = target: T1, hNav1.7 (Homo sapiens, UniProt Q15858); experiment: Tritiated compound binding (LBA) to membranes from cells expressing hNav1.7 and the β1 subunit, competitive binding; conditions: competitive binding vs 100 pM [3H]compound, 18 h, room temperature, membranes with hNav1.7 and β1 subunit
T1 construct: expressed in transfected cells
Method in brief: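 Membranes from cells expressing hNav1.7 with β1 were incubated 18 h at room temperature with 100 pM tritiated formula (I) compound and increasing test compound, in 100 mM NaCl, 20 mM Tris HCl pH 7.4, 0.01% BSA.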

[2] = target: T2, human NaV1.7 (Homo sapiens, UniProt Q15858); experiment: Patch voltage clamp electrophysiology assay (EP), NaV1.7; type: cell-based; conditions: HEK-293 cells stably expressing NaV1.7 with β1 subunit; whole-cell patch clamp, membrane potential −60 mV (inactivated state)
T2 construct: permanently transfected with an expression vector containing the full-length cDNA coding for the desired human sodium channel α-subunit; expressed in transfected cells; host or cells: HEK-293
T2 sequence (Q15858 1-1977 isoform Q15858-3): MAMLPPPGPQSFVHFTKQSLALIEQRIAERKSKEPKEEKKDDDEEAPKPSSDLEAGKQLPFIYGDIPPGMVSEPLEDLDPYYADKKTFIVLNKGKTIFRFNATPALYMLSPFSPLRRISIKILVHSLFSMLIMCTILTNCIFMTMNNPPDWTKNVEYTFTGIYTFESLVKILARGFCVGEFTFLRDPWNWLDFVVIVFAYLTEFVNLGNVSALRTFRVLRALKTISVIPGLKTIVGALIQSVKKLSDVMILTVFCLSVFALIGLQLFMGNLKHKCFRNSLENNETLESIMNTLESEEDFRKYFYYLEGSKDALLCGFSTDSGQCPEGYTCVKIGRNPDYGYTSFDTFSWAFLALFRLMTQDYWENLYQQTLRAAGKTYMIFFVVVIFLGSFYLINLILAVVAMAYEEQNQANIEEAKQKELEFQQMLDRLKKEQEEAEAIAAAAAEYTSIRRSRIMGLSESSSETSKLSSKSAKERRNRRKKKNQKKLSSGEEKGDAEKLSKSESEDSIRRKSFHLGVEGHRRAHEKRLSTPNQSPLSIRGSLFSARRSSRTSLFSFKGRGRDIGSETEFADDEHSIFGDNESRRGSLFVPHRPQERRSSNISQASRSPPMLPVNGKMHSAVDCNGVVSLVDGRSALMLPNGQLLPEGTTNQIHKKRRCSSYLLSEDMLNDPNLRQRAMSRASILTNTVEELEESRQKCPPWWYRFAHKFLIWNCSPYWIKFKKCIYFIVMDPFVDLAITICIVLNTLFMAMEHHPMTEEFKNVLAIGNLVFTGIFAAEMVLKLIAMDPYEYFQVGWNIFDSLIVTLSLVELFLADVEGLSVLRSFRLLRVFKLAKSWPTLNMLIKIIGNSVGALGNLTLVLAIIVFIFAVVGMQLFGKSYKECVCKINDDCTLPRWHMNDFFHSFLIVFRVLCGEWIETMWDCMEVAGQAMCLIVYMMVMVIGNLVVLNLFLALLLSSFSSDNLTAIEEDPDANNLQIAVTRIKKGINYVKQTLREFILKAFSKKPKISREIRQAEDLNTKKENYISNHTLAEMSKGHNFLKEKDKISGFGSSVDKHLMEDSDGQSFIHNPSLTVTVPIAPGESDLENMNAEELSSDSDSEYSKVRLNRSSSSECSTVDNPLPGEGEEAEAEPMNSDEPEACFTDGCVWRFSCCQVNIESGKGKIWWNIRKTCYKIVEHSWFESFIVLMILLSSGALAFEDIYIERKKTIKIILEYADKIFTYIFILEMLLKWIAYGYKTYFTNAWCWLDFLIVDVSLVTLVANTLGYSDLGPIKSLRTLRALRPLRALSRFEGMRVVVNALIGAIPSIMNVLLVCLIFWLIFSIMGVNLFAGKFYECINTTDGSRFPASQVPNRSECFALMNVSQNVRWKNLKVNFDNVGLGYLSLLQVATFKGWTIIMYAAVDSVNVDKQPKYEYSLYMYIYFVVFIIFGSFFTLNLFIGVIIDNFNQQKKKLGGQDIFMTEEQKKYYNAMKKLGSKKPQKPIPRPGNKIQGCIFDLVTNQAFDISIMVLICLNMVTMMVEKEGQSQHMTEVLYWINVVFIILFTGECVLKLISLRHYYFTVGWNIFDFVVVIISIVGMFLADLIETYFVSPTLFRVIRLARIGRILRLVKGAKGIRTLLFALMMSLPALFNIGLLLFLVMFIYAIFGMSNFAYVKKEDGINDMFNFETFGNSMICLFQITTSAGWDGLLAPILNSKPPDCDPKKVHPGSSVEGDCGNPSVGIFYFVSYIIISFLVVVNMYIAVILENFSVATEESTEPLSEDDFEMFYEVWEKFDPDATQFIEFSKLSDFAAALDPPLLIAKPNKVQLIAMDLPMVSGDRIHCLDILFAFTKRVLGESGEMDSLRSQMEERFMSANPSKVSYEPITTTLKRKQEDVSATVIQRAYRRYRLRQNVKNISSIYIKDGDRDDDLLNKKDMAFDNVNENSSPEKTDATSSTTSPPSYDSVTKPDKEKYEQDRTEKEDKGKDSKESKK
T2 sequence (Q07699 19-218 partner): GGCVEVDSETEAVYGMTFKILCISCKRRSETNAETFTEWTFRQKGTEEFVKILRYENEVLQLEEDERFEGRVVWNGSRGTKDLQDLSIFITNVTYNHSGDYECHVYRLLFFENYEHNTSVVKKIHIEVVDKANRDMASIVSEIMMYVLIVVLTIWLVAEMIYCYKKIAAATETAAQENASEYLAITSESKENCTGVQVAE
Method in brief: (§1)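 HEK-293 cells stably expressing human α-subunit with β1; whole-cell patch clamp (PatchXpress or manual), ambient temperature, pH 7.4 external NaCl, CsF internal. Held at −60 mV (full inactivation), stepped to −150 mV for 20 ms, then test pulse; percent current decrease after compound wash-on taken as block.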

[3] = target: T3, NaV1.5 (Homo sapiens, UniProt Q14524); experiment: Patch voltage clamp electrophysiology assay (EP), NaV1.5; type: cell-based; conditions: HEK-293 cells stably expressing NaV1.5 with β1 subunit, whole-cell patch clamp, membrane potential −60 mV (inactivated state)
T3 construct: permanently transfected with an expression vector containing the full-length cDNA coding for the desired human sodium channel α-subunit; expressed in transfected cells; host or cells: HEK-293
T3 sequence (Q14524 whole entry): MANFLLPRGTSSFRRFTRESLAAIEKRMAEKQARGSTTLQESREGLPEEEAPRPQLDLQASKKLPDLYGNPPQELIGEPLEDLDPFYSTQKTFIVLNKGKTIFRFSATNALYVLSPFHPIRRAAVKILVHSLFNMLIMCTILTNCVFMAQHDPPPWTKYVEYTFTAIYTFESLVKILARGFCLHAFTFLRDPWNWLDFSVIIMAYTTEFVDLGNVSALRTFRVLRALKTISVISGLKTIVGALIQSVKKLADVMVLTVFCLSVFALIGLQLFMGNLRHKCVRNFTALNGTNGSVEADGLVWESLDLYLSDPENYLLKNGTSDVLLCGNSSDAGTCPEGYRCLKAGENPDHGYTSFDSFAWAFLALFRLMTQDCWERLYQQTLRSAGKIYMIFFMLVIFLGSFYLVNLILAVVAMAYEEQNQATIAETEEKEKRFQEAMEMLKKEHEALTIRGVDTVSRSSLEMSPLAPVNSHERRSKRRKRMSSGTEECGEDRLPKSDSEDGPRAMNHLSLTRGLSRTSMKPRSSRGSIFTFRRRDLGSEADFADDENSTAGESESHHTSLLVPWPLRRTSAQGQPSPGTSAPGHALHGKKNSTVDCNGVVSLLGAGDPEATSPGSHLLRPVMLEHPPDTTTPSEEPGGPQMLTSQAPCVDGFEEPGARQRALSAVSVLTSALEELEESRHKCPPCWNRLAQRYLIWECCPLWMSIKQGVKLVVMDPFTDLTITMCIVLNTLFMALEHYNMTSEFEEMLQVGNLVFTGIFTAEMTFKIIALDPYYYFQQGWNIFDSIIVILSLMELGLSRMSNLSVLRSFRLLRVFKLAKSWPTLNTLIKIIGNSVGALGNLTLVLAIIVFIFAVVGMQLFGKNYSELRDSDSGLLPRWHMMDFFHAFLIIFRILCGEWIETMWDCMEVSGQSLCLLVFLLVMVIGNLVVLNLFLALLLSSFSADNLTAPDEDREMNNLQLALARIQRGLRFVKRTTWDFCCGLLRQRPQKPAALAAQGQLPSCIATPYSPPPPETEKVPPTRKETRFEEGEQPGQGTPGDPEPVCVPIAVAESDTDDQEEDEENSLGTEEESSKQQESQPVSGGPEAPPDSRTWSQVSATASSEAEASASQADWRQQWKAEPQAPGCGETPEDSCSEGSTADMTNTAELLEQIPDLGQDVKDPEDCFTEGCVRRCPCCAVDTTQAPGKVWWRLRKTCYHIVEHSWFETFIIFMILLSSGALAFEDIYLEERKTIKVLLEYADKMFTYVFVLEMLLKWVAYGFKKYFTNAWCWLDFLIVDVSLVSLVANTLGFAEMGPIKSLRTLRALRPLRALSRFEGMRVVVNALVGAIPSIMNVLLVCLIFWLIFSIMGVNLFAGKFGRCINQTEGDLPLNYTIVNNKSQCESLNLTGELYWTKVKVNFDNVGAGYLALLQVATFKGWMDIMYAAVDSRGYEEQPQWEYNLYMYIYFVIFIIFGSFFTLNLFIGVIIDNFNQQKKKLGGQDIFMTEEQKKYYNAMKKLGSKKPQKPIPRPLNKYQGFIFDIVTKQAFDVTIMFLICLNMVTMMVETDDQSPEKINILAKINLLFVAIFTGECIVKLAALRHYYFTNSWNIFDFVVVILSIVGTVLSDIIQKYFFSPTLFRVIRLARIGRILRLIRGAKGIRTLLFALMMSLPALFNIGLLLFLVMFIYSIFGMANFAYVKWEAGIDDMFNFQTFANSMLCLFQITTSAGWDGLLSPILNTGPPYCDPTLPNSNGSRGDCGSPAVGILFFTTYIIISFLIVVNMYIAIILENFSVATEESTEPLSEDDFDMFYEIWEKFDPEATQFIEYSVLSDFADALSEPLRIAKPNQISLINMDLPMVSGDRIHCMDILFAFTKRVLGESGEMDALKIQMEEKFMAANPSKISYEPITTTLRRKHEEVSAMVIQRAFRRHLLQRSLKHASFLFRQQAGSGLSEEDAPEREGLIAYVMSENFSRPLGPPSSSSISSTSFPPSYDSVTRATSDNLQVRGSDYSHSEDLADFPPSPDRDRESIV
Method in brief: as §1

[4] = human, HEK-293 cells stably expressing human NaV1.5 with β1 subunit, pH 7.4

T1 sequence (Q15858 1-1977 isoform Q15858-3): as the sequence (Q15858 1-1977 isoform Q15858-3) above
T1 sequence (Q07699 19-218 partner): as the sequence (Q07699 19-218 partner) above

Structure (SMILES) | IC50 [1] [nM] | IC50 [2] [nM] | IC50 ([3]; read-out: Nav1.5) [nM] | IC50 [3, 4] [nM]
O=C(O)[C@@H]1CS(=O)(=O)CN1C(=O)c1cc(C2CC2)c(OCC23CC4CC(CC(C4)C2)C3)cc1F [Example 143, (4R)-3-[4-(1-adamantylmethoxy)-5-cyclopropyl-2-fluoro-benzoyl]-1,1-dioxo-1,3-thiazolidine-4-carboxylic acid] | 170 | 1200 | 21000 | –
N#C[C@H]1C[C@@H](C(=O)O)N(C(=O)c2cc(C3CC3)c(OCC34CC5CC(CC(C5)C3)C4)cc2F)C1 [Example 144, (2S,4S)-1-[4-(1-adamantylmethoxy)-5-cyclopropyl-2-fluoro-benzoyl]-4-cyano-pyrrolidine-2-carboxylic acid] | 870 | 3500 | – | ≥ 30000
O=C(O)[C@@H]1CC(F)(F)CN1C(=O)c1cc(C2CC2)c(OCC23CC4CC(CC(C4)C2)C3)cc1F [Example 145, (2S)-1-[4-(1-adamantylmethoxy)-5-cyclopropyl-2-fluoro-benzoyl]-4,4-difluoro-pyrrolidine-2-carboxylic acid] | 35 | 640 | 16000 | –
O=C(O)[C@@H]1[C@H]2CC[C@H](C2)N1C(=O)c1cc(C2CC2)c(OCC23CC4CC(CC(C4)C2)C3)cc1F [Example 146, (1S,2S,4R)-3-[4-(1-adamantylmethoxy)-5-cyclopropyl-2-fluoro-benzoyl]-3-azabicyclo[2.2.1]heptane-2-carboxylic acid] | 180 | 1500 | 8400 | –
CC1(C)CCC(C(=O)O)N1C(=O)c1cc(C2CC2)c(OCC23CC4CC(CC(C4)C2)C3)cc1F (stereo not drawn) [Example 147, 1-[4-(1-adamantylmethoxy)-5-cyclopropyl-2-fluoro-benzoyl]-5,5-dimethyl-pyrrolidine-2-carboxylic acid] | 260 | 2100 | 14000 | –
C[C@H]1C[C@@H](C(=O)O)N(C(=O)c2cc(C3CC3)c(OCC34CC5CC(CC(C5)C3)C4)cc2F)C1 [Example 148, (2S,4S)-1-[4-(1-adamantylmethoxy)-5-cyclopropyl-2-fluoro-benzoyl]-4-methyl-pyrrolidine-2-carboxylic acid] | 49 | 620 | 17000 | –
C[C@H]1CCN(C(=O)c2cc(C3CC3)c(OCC34CC5CC(CC(C5)C3)C4)cc2F)[C@@H]1C(=O)O [Example 149, (2S,3S)-1-[4-(1-adamantylmethoxy)-5-cyclopropyl-2-fluoro-benzoyl]-3-methyl-pyrrolidine-2-carboxylic acid] | 10 | 300 | 17000 | –
C[C@@H]1C[C@@H](C(=O)O)N(C(=O)c2cc(C3CC3)c(OCC34CC5CC(CC(C5)C3)C4)cc2F)C1 [Example 150, (2S,4R)-1-[4-(1-adamantylmethoxy)-5-cyclopropyl-2-fluoro-benzoyl]-4-methyl-pyrrolidine-2-carboxylic acid] | 85 | 1200 | 19000 | –
CC1(C)SCN(C(=O)c2cc(C3CC3)c(OCC34CC5CC(CC(C5)C3)C4)cc2F)[C@@H]1C(=O)O [Example 155, (4R)-3-[4-(1-adamantylmethoxy)-5-cyclopropyl-2-fluoro-benzoyl]-5,5-dimethyl-thiazolidine-4-carboxylic acid] | 68 | 900 | 9300 | –
C[C@@H](c1cc(Cl)cc(Cl)c1)N1CCC(COc2cc(F)c(C(=O)N3[C@@H]4C[C@@H]4C[C@H]3C(=O)O)cc2C2CC2)CC1 [Example 156, (1R,3S,5R)-4-[5-cyclopropyl-4-[[1-[(1S)-1-(3,5-dichlorophenyl)ethyl]-4-piperidyl]methoxy]-2-fluoro-benzoyl]-4-azabicyclo[3.1.0]hexane-3-carboxylic acid] | 830 | 3100 | 17000 | –
C[C@@H](c1cc(Cl)cc(Cl)c1)N1CCC(COc2cc(F)c(C(=O)N3CSC[C@H]3C(=O)O)cc2C2CC2)CC1 [Example 159, (4R)-3-[5-cyclopropyl-4-[[1-[(1S)-1-(3,5-dichlorophenyl)ethyl]-4-piperidyl]methoxy]-2-fluoro-benzoyl]thiazolidine-4-carboxylic acid] | 80 | 1000 | 17000 | –
O=C(O)[C@@H]1CC(F)(F)CN1C(=O)c1cc(C2CC2)c(OCC23CC4CC(CC(C4)C2)C3)cc1F [Example 160, (2S)-1-[4-(1-adamantylmethoxy)-5-cyclopropyl-2-fluoro-benzoyl]-4,4-difluoro-pyrrolidine-2-carboxylic acid] | 35 | 640 | 16000 | –
O=C(O)[C@@H]1C[C@H](O)CN1C(=O)c1cc(C2CC2)c(OCC23CC4CC(CC(C4)C2)C3)cc1F [Example 161, (2S,4S)-1-[4-(1-adamantylmethoxy)-5-cyclopropyl-2-fluoro-benzoyl]-4-hydroxy-pyrrolidine-2-carboxylic acid] | 390 | 980 | – | ≥ 30000
C[C@H]1OCN(C(=O)c2cc(C3CC3)c(OCC34CC5CC(CC(C5)C3)C4)cc2F)[C@@H]1C(=O)O [Example 162, (4S,5R)-3-[4-(1-adamantylmethoxy)-5-cyclopropyl-2-fluoro-benzoyl]-5-methyl-oxazolidine-4-carboxylic acid] | 7.3 | 94 | 5700 | –
C[C@@H]1OCN(C(=O)c2cc(C3CC3)c(OCC34CC5CC(CC(C5)C3)C4)cc2F)[C@H]1C(=O)O [Example 163, (4R,5S)-3-[4-(1-adamantylmethoxy)-5-cyclopropyl-2-fluoro-benzoyl]-5-methyl-oxazolidine-4-carboxylic acid] | 120 | 820 | 4700 | –
C[C@H]1OCN(C(=O)c2cc(C3CC3)c(OCC3CCN([C@@H](C)c4cc(Cl)cc(Cl)c4)CC3)cc2F)[C@@H]1C(=O)O [Example 164, (4S,5R)-3-[5-cyclopropyl-4-[[1-[(1S)-1-(3,5-dichlorophenyl)ethyl]-4-piperidyl]methoxy]-2-fluoro-benzoyl]-5-methyl-oxazolidine-4-carboxylic acid] | 25 | 62 | 13000 | –
CC1O[C@H](C)[C@@H](C(=O)O)N1C(=O)c1cc(C2CC2)c(OCC23CC4CC(CC(C4)C2)C3)cc1F (stereo partly drawn) [Example 166, (4S,5R)-3-[4-(1-adamantylmethoxy)-5-cyclopropyl-2-fluoro-benzoyl]-2,5-dimethyl-oxazolidine-4-carboxylic acid] | 90 | 750 | 13000 | –
O=C(O)C1=CCCN1C(=O)c1cc(C2CC2)c(OCC23CC4CC(CC(C4)C2)C3)cc1F [Example 167, 1-[4-(1-adamantylmethoxy)-5-cyclopropyl-2-fluoro-benzoyl]-2,3-dihydropyrrole-5-carboxylic acid] | 190 | 660 | 28000 | –
CC[C@H]1CCN(C(=O)c2cc(C3CC3)c(OCC34CC5CC(CC(C5)C3)C4)cc2F)[C@@H]1C(=O)O [Example 168a, (2S,3S)-1-[4-(1-adamantylmethoxy)-5-cyclopropyl-2-fluoro-benzoyl]-3-ethyl-pyrrolidine-2-carboxylic acid] | 610 | 3300 | 6800 | –
CC[C@@H]1CCN(C(=O)c2cc(C3CC3)c(OCC34CC5CC(CC(C5)C3)C4)cc2F)[C@H]1C(=O)O [Example 168b, (2R,3R)-1-[4-(1-adamantylmethoxy)-5-cyclopropyl-2-fluoro-benzoyl]-3-ethyl-pyrrolidine-2-carboxylic acid] | 180 | 1300 | 8200 | –
C[C@@H](c1cc(Cl)cc(Cl)c1)N1CCC(COc2cc(F)c(C(=O)N3C[C@H](Cl)C[C@H]3C(=O)O)cc2C2CC2)CC1 [Example 169, (2S,4R)-4-chloro-1-(5-cyclopropyl-4-((1-((S)-1-(3,5-dichlorophenyl)ethyl)piperidin-4-yl)methoxy)-2-fluorobenzoyl)pyrrolidine-2-carboxylic acid] | 91 | 780 | 13000 | –
O=C(N[C@H](C(=O)O)C1CCC1)c1cc(C2CC2)c(OCC23CC4CC(CC(C4)C2)C3)cc1F [Example 170, (2S)-2-[[4-(1-adamantylmethoxy)-5-cyclopropyl-2-fluorobenzoyl]amino]-2-cyclobutyl-acetic acid] | 260 | 3800 | 3700 | –
CC(c1cc(Cl)cc(Cl)c1)N1CCC(COc2cc(F)c(C(=O)N3[C@@H](C(=O)O)C[C@H]4CCC[C@H]43)cc2C2CC2)CC1 (stereo partly drawn) [Example 172, (2R,3R,6R)-1-(5-cyclopropyl-4-((1-((R)-1-(3,5-dichlorophenyl)ethyl)piperidin-4-yl)methoxy)-2-fluorobenzoyl)octahydrocyclopenta[b]pyrrole-2-carboxylic acid] | 1000 | 4200 | 14000 | –
O=C(O)[C@@H]1C[C@@H](F)CN1C(=O)c1cc(C2CC2)c(OCC2CCN(Cc3cc(Cl)cc(C(F)(F)F)c3)CC2)cc1F [Example 173, (2S,4R)-1-(4-((1-(3-chloro-5-(trifluoromethyl)benzyl)piperidin-4-yl)methoxy)-5-cyclopropyl-2-fluorobenzoyl)-4-fluoropyrrolidine-2-carboxylic acid] | 65 | 330 | 23000 | –

From patent publication US10125098B2, “Therapeutic compounds and methods of use thereof” (GENENTECH, INC., priority 2014, dated 2018)
